Experimental data as given in patent US20230085307A1, “PYRIDAZINONE COMPOUND AND HERBICIDE” (NISSAN CHEMICAL CORPORATION, priority 2019, published 2023).

Tests used:
persian speedwell = test: Test Example 4: herbicidal effect by soil treatment (Table 19, symbol R); type: in vivo, Persian speedwell (Veronica persica); conditions: 320 g/ha
Outline: (§1)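 Soil-surface application: an emulsion agent diluted with water to the predetermined dose is sprayed uniformly over seeds lying under roughly 1.5 cm of sterilized diluvial soil. Boxes stay in a greenhouse at 25° C. to 30° C. Three weeks later, each species is graded on previously defined criteria.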

redroot pigweed [1] = test: Test Example 4: herbicidal effect by soil treatment (Table 19, symbol N); type: in vivo, redroot pigweed (Amaranthus retroflexus); conditions: 320 g/ha
Outline: as §1

blackgrass [2] = test: Test Example 4: herbicidal effect by soil treatment (Table 19, symbol J); type: in vivo, blackgrass (Alopecurus myosuroides); conditions: 320 g/ha
Outline: as §1

late watergrass = test: Test Example 2: herbicidal activity, application during weed generation under submerged conditions (Table 17, symbol A); type: in vivo, late watergrass (Echinochloa oryzicola); conditions: AAH 320 g/ha; application during weed generation, submerged conditions
Outline: (§2)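 Effect on each weed is rated three weeks post-treatment, using the same scoring criteria as the preceding test. Plants grow from mixed-sown seed in flooded alluvial soil (4 cm water) at 25° C. to 30° C., and are treated at one to two leaves with diluted emulsion dropped onto the water.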

redroot pigweed [3] = test: Test Example 5: herbicidal effect by foliage application, plastic box (Table 20, symbol N); type: in vivo, redroot pigweed (Amaranthus retroflexus); conditions: foliage application, 320 g/ha, evaluated three weeks after application
Outline: (§3)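 Sow seeds spot-wise in sterilized diluvial soil; cover with ~1.5 cm soil. Grow 14 days in greenhouse, 25° C. to 30° C. Spray foliage with emulsion diluted to predetermined amount. Rate effect after 3 weeks.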

barnyard grass = test: Test Example 5: herbicidal effect by foliage application, plastic box (Table 20, symbol H); type: in vivo, barnyard grass (Echinochloa crus-galli); conditions: foliage application, 320 g/ha, evaluated three weeks after application
Outline: as §3

Italian ryegrass = test: Test Example 4: herbicidal effect by soil treatment (Table 19, symbol K); type: in vivo, Italian ryegrass (Lolium multiflorum); conditions: 320 g/ha
Outline: as §1

oval-leafed pondweed [4] = test: Test Example 1: herbicidal activity, application before weed generation under submerged conditions (Table 16, symbol C); type: in vivo, oval-leafed pondweed (Monochoria vaginalis); conditions: 320 g/ha applied herbicide
Outline: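 Submerged Wagner pots (alluvial soil, 4 cm water) sown with weed seeds and planted with 2.5-leaf rice seedlings; emulsifiable concentrate diluted in water applied to water surface on sowing day. Held in greenhouse at 25-30 °C; injury scored 0-5 by herbicidal rate after three weeks.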

rice flat sedge = test: Test Example 3: herbicidal effect by foliage application, Wagner pot (Table 18, symbol E); type: in vivo, rice flat sedge (Cyperus iria); conditions: 320 g/ha
Outline: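 Plants were sown in alluvial soil held under 0.1–0.5 cm standing water and grown 14 days in a greenhouse at 25–30 °C. An emulsifiable formulation, water-diluted to the set dose, was then sprayed onto the foliage, and effects were scored three weeks later using previously defined criteria.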

wild oat = test: Test Example 4: herbicidal effect by soil treatment (Table 19, symbol I); type: in vivo, wild oat (Avena fatua); conditions: 320 g/ha
Outline: as §1

oval-leafed pondweed [5] = test: Test Example 2: herbicidal activity, application during weed generation under submerged conditions (Table 17, symbol C); type: in vivo, oval-leafed pondweed (Monochoria vaginalis); conditions: AAH 320 g/ha; application during weed generation, submerged conditions
Outline: as §2

green foxtail [6] = test: Test Example 4: herbicidal effect by soil treatment (Table 19, symbol G); type: in vivo, green foxtail (Setaria viridis); conditions: 320 g/ha
Outline: as §1

chickweed [7] = test: Test Example 4: herbicidal effect by soil treatment (Table 19, symbol P); type: in vivo, common chickweed (Stellaria media); conditions: 320 g/ha
Outline: as §1

green foxtail [8] = test: Test Example 5: herbicidal effect by foliage application, plastic box (Table 20, symbol G); type: in vivo, green foxtail (Setaria viridis); conditions: foliage application, 320 g/ha, evaluated three weeks after application
Outline: as §3

blackgrass [9] = test: Test Example 5: herbicidal effect by foliage application, plastic box (Table 20, symbol J); type: in vivo, blackgrass (Alopecurus myosuroides); conditions: foliage application, 320 g/ha, evaluated three weeks after application
Outline: as §3

chickweed [10] = test: Test Example 5: herbicidal effect by foliage application, plastic box (Table 20, symbol P); type: in vivo, common chickweed (Stellaria media); conditions: foliage application, 320 g/ha, evaluated three weeks after application
Outline: as §3

Structure (SMILES) | herbicidal effect rating, R: persian speedwell (persian speedwell) | herbicidal effect rating, N: redroot pigweed (redroot pigweed [1]) | herbicidal effect rating, J: blackgrass (blackgrass [2]) | herbicidal effect rating, A: late watergrass (late watergrass) | herbicidal effect on N: redroot pigweed (redroot pigweed [3]) | herbicidal effect on H: barnyard grass (barnyard grass) | herbicidal effect rating, K: Italian ryegrass (Italian ryegrass) | Herbicidal effect on C: oval-leafed pondweed (grade 0-5) (oval-leafed pondweed [4]) | herbicidal effect on E (rice flat sedge), rating 0-5 (rice flat sedge) | herbicidal effect rating, I: wild oat (wild oat) | herbicidal effect rating, C: oval-leafed pondweed (oval-leafed pondweed [5]) | herbicidal effect rating, G: green foxtail (green foxtail [6]) | herbicidal effect rating, P: chickweed (chickweed [7]) | herbicidal effect on G: green foxtail (green foxtail [8]) | herbicidal effect on J: blackgrass (blackgrass [9]) | herbicidal effect on P: chickweed (chickweed [10])
COCCOc1ccc(-c2sc3ccc(F)cc3c2-c2c(O)c(C)nn(C)c2=O)cc1 [2-056] | 5 (Herbicidal rate of 90% or more (almost completely withered)) | 5 (Herbicidal rate of 90% or more (almost completely withered)) | 0 (Herbicidal rate of 5% or less (almost no effect)) | 3 (Herbicidal rate of 40% or more and less than 70%) | 5 (Herbicidal rate of 90% or more (almost completely withered)) | 5 (Herbicidal rate of 90% or more (almost completely withered)) | 0 (Herbicidal rate of 5% or less (almost no effect)) | 5 (Herbicidal rate of 90% or more (almost completely withered)) | 5 (Herbicidal rate of 90% or more (almost completely withered)) | 0 (Herbicidal rate of 5% or less (almost no effect)) | 3 (Herbicidal rate of 40% or more and less than 70%) | 5 (Herbicidal rate of 90% or more (almost completely withered)) | 5 (Herbicidal rate of 90% or more (almost completely withered)) | 5 (Herbicidal rate of 90% or more (almost completely withered)) | 5 (Herbicidal rate of 90% or more (almost completely withered)) | 5 (Herbicidal rate of 90% or more (almost completely withered))
Cc1nn(C)c(=O)c(-c2c(-c3ccc(OCC4CC4)cc3)sc3ccc(F)cc23)c1O [2-060] | 5 (Herbicidal rate of 90% or more (almost completely withered)) | 5 (Herbicidal rate of 90% or more (almost completely withered)) | 0 (Herbicidal rate of 5% or less (almost no effect)) | 0 (Herbicidal rate of 5% or less (almost no effect)) | 5 (Herbicidal rate of 90% or more (almost completely withered)) | 3 (Herbicidal rate of 40% or more and less than 70%) | 0 (Herbicidal rate of 5% or less (almost no effect)) | 4 (Herbicidal rate of 70% or more and less than 90%) | 5 (Herbicidal rate of 90% or more (almost completely withered)) | 0 (Herbicidal rate of 5% or less (almost no effect)) | 1 (Herbicidal rate of 5% or more and less than 20%) | 1 (Herbicidal rate of 5% or more and less than 20%) | 1 (Herbicidal rate of 5% or more and less than 20%) | 3 (Herbicidal rate of 40% or more and less than 70%) | 3 (Herbicidal rate of 40% or more and less than 70%) | 5 (Herbicidal rate of 90% or more (almost completely withered))
Cc1nn(C)c(=O)c(-c2c(-c3ccc(OCc4ccccc4)cc3)sc3ccc(F)cc23)c1O [2-062] | 3 (Herbicidal rate of 40% or more and less than 70%) | 4 (Herbicidal rate of 70% or more and less than 90%) | 0 (Herbicidal rate of 5% or less (almost no effect)) | 0 (Herbicidal rate of 5% or less (almost no effect)) | 5 (Herbicidal rate of 90% or more (almost completely withered)) | 5 (Herbicidal rate of 90% or more (almost completely withered)) | 0 (Herbicidal rate of 5% or less (almost no effect)) | 3 (Herbicidal rate of 40% or more and less than 70%) | 5 (Herbicidal rate of 90% or more (almost completely withered)) | 0 (Herbicidal rate of 5% or less (almost no effect)) | 2 (Herbicidal rate of 20% or more and less than 40%) | 3 (Herbicidal rate of 40% or more and less than 70%) | 0 (Herbicidal rate of 5% or less (almost no effect)) | 5 (Herbicidal rate of 90% or more (almost completely withered)) | 1 (Herbicidal rate of 5% or more and less than 20%) | 5 (Herbicidal rate of 90% or more (almost completely withered))
CCCC(=O)Oc1c(C)nn(C)c(=O)c1-c1c(-c2ccc(C(C)=O)cc2)sc2ccc(F)cc12 [2-078] | 5 (Herbicidal rate of 90% or more (almost completely withered)) | 4 (Herbicidal rate of 70% or more and less than 90%) | 1 (Herbicidal rate of 5% or more and less than 20%) | 3 (Herbicidal rate of 40% or more and less than 70%) | 5 (Herbicidal rate of 90% or more (almost completely withered)) | 2 (Herbicidal rate of 20% or more and less than 40%) | 4 (Herbicidal rate of 70% or more and less than 90%) | 4 (Herbicidal rate of 70% or more and less than 90%) | 5 (Herbicidal rate of 90% or more (almost completely withered)) | 0 (Herbicidal rate of 5% or less (almost no effect)) | 4 (Herbicidal rate of 70% or more and less than 90%) | 0 (Herbicidal rate of 5% or less (almost no effect)) | 3 (Herbicidal rate of 40% or more and less than 70%) | 3 (Herbicidal rate of 40% or more and less than 70%) | 4 (Herbicidal rate of 70% or more and less than 90%) | 5 (Herbicidal rate of 90% or more (almost completely withered))
